According to patent publication US10208074B2, “Pyrazole compounds and method for making and using the compounds” (Rigel Pharmaceuticals, Inc., priority 2015, dated 2019):
Counter-ions that a name gives are not always drawn. Like-named read-outs stand apart in the source and are kept apart here.

Columns and labels:
[1] = test system: IL-23 (p19/p40); assay: IL23-p19 ELISA, Dendritic, LPS (compound screening using DC cells); type: cell-based, Human
Procedure, shortened: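 IL-23 in supernatants quantified by sandwich ELISA (anti-p19 capture, biotinylated anti-p40 detection, chemiluminescent readout) after 18 h LPS (1 μg/ml) stimulation. Cells were monocyte-derived DCs (GM-CSF/IL-4, 7 d), IFNγ-primed 24 h and given compound 1 h before LPS; viability by CellTiter Glo.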

[2] = test system: IL-23p19; assay: LPS induced IL23p19 in THP-1 cells (with IFNγ primed) assay; type: cell-based, Human
Procedure, shortened: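 Readout is secreted IL-23p19, quantified by chemiluminescent sandwich ELISA after 18 h LPS (1 ug/mL) stimulation of THP-1 cells that had been IFNγ-primed (50 ng/mL, ~18 h) and given compound 1 h beforehand at 37 °C. EC50 derived by curve fit; cytotoxicity tracked with Cell Titer Glo.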

[3] = Homo sapiens, 18 h, PBMC-derived DC cells, IFNγ primed, LPS 1 μg/ml, 18 hours, 10 pt, read-out: IL23-p19 ELISA, Dendritic, LPS, 10 pt, EC50
[4] = Homo sapiens, THP-1, 18 h, THP-1 cells, IFNγ primed, LPS 1 ug/mL, 18 hours, 10 pt, read-out: IL23-p19 ELISA, THP1-IFNy, LPS, 10 pt EC50

Compound | EC50 [1, 3] | EC50 [2, 4] | also measured
O=C(Nc1cn(Cc2ccccc2)nc1-c1ccccn1)c1csc(-c2cn[nH]c2)n1 [II-120, N-(1-benzyl-3-(pyridin-2-yl)-1H-pyrazol-4-yl)-2-(1H-pyrazol-4-yl)thiazole-4-carboxamide] | 1.17 µM | 0.664 µM | –
CCOCCn1cc(NC(=O)c2csc(-c3cn[nH]c3)n2)c(-c2ccccn2)n1 [II-18, N-(1-(2-ethoxyethyl)-3-(pyridin-2-yl)-1H-pyrazol-4-yl)-2-(1H-pyrazol-4-yl)thiazole-4-carboxamide, formic acid salt] | – | – | EC50 ([1]; PBMC-derived DC cells, IFNγ primed, LPS 1 μg/ml, 18 hours, 10 pt, formic acid salt, read-out: IL23-p19 ELISA, Dendritic, LPS, 10 pt, EC50): 0.0314 µM; EC50 ([2]; THP-1 cells, IFNγ primed, LPS 1 ug/mL, 18 hours, 10 pt, formic acid salt, read-out: IL23-p19 ELISA, THP1-IFNy, LPS, 10 pt EC50): 0.301 µM
CCO[C@H]1C[C@@H](n2cc(NC(=O)c3csc(-c4cnn(COP(=O)(O)O)c4)n3)c(-c3ccccn3)n2)C1 [II-81, (4-(4-((1-((1,3-cis)-3-ethoxycyclobutyl)-3-(pyridin-2-yl)-1H-pyrazol-4-yl)carbamoyl)thiazol-2-yl)-1H-pyrazol-1-yl)methyl phosphate bis-lysine salt] | – | – | EC50 ([1]; PBMC-derived DC cells, IFNγ primed, LPS 1 μg/ml, 18 hours, 10 pt, read-out: IL23-p19 ELISA, Dendritic, LPS, 10 pt, EC50): 0.171 µM; EC50 ([2]; THP-1 cells, IFNγ primed, LPS 1 ug/mL, 18 hours, 10 pt, read-out: IL23-p19 ELISA, THP1-IFNy, LPS, 10 pt EC50): 0.019 µM
CC(C)[C@H](NC(=O)OC(C)(C)C)C(=O)n1cc(-c2nc(C(=O)Nc3cn(C)nc3-c3ccccn3)cs2)cn1 [II-3, tert-butyl (S)-(3-methyl-1-(4-(4-((1-methyl-3-(pyridin-2-yl)-1H-pyrazol-4-yl)carbamoyl)thiazol-2-yl)-1H-pyrazol-1-yl)-1-oxobutan-2-yl)carbamate] | 0.371 µM | 0.198 µM | –
CCO[C@H]1C[C@@H](n2cc(NC(=O)c3csc(-c4cnn(COP(=O)(O)O)c4)n3)c(-c3ccccn3)n2)C1 [II-77, (4-(4-((1-((1,3-cis)-3-ethoxycyclobutyl)-3-(pyridin-2-yl)-1H-pyrazol-4-yl)carbamoyl)thiazol-2-yl)-1H-pyrazol-1-yl)methyl phosphate bis-potassium salt] | – | – | EC50 ([1]; PBMC-derived DC cells, IFNγ primed, LPS 1 μg/ml, 18 hours, 10 pt, phosphate bis-potassium salt, read-out: IL23-p19 ELISA, Dendritic, LPS, 10 pt, EC50): 0.146 µM; EC50 ([2]; THP-1 cells, IFNγ primed, LPS 1 ug/mL, 18 hours, 10 pt, phosphate bis-potassium salt, read-out: IL23-p19 ELISA, THP1-IFNy, LPS, 10 pt EC50): 0.147 µM
O=C(Nc1cn(C2CC(OCc3ccccc3)C2)nc1-c1ccccn1)c1ccc(-c2cn[nH]c2)o1 (stereo not drawn) [Compound I-73, N-{1-(3-Benzyloxy)cyclobutyl)-3-(pyridine-2-yl)-1H-pyrazol-4-yl}-5-(1H-pyrazol-4-yl)furan-2-carboxamide, Trans isomer] | 0.41 µM | 0.697 µM | –
COCCOCCN(C(=O)c1ccc(-c2cnn(CCOCCOC)c2)o1)c1cn(CCOCCOC)nc1-c1ccccn1 [Compound I-50, N-(2-(2-methoxyethoxy)ethyl)-5-(1-(2-(2-methoxyethoxy)ethyl)-1H-pyrazol-4-yl)-N-(1-(2-(2-methoxyethoxy)ethyl)-3-(pyridin-2-yl)-1H-pyrazol-4-yl)furan-2-carboxamide formate] | 3.51 µM | 14.2 µM | –
O=C(Nc1cn(C(F)F)nc1-c1ccccn1)c1csc(-c2c[nH]nc2C(F)(F)F)n1 [II-95, N-(1-(difluoromethyl)-3-(pyridin-2-yl)-1H-pyrazol-4-yl)-2-(3-(trifluoromethyl)-1H-pyrazol-4-yl)thiazole-4-carboxamide] | 6.23 µM | 2.25 µM | –
Cn1cc(NC(=O)c2ccc(-c3cn[nH]c3)o2)c(-c2ccc(OC3COC3)cn2)n1 [Compound I-108, N-(1-methyl-3-(5-(oxetan-3-yloxy)pyridin-2-yl)-1H-pyrazol-4-yl)-5-(1H-pyrazol-4-yl)furan-2-carboxamide] | 0.73 µM | 0.491 µM | –
CCO[C@H]1C[C@@H](n2cc(NC(=O)c3csc(-c4cnn(COP(=O)(O)O)c4)n3)c(-c3ccccn3)n2)C1 [II-82, (4-(4-((1-((1,3-cis)-3-ethoxycyclobutyl)-3-(pyridin-2-yl)-1H-pyrazol-4-yl)carbamoyl)thiazol-2-yl)-1H-pyrazol-1-yl)methyl phosphate bis-arginine salt] | – | – | EC50 ([1]; Homo sapiens, 18 h, read-out: IL23-p19 ELISA, Dendritic, LPS, 10 pt, EC50 (μM)): 0.176 µM; EC50 ([2]; Homo sapiens, THP-1, 18 h, read-out: IL23-p19 ELISA, THP1-IFNy, LPS, 10 pt EC50 (μM)): 0.0387 µM
CCO[C@H]1C[C@@H](n2cc(NC(=O)c3ccc(-c4cnn(COP(=O)(O)O)c4)o3)c(-c3ccccn3)n2)C1 [Compound I-35, (4-(5-((1-((1,3-cis)-3-ethoxycyclobutyl)-3-(pyridin-2-yl)-1H-pyrazol-4-yl)carbamoyl)furan-2-yl)-1H-pyrazol-1-yl)methyl phosphate bis-sodium salt] | 0.52 µM | 0.0633 µM | –

Now from value to molecule, other results behind:

EC50 [1, 3] | EC50 [2, 4] | Compound | also measured
0.211 µM | 0.109 µM | O=C(Nc1cn(CCOCCF)nc1-c1ccccn1)c1csc(-c2cn[nH]c2)n1 [II-118, N-(1-(2-(2-fluoroethoxy)ethyl)-3-(pyridin-2-yl)-1H-pyrazol-4-yl)-2-(1H-pyrazol-4-yl)thiazole-4-carboxamide] | –
0.191 µM | 0.361 µM | O=C(Nc1c[nH]nc1-c1ccccn1)c1csc(-c2cn[nH]c2)n1 [II-32, 2-(1H-pyrazol-4-yl)-N-(3-(pyridin-2-yl)-1H-pyrazol-4-yl)thiazole-4-carboxamide formic acid salt] | –
0.0504 µM | 0.0225 µM | CN1CCN(CCn2cc(NC(=O)c3csc(-c4cn[nH]c4)n3)c(-c3ccccn3)n2)CC1 [II-61, N-(1-(2-(4-methylpiperazin-1-yl)ethyl)-3-(pyridin-2-yl)-1H-pyrazol-4-yl)-2-(1H-pyrazol-4-yl)thiazole-4-carboxamide] | –
0.0454 µM | 0.0444 µM | O=C(Nc1cn([C@H]2C[C@@H](OCC(F)(F)F)C2)nc1-c1ncccc1F)c1csc(-c2cn[nH]c2)n1 [II-165, N-(3-(3-fluoropyridin-2-yl)-1-((cis)-3-(2,2,2-trifluoroethoxy)cyclobutyl)-1H-pyrazol-4-yl)-2-(1H-pyrazol-4-yl)thiazole-4-carboxamide] | –
0.0854 µM | 0.0418 µM | COC1CC(n2cc(NC(=O)c3csc(-c4cn[nH]c4)n3)c(-c3ccccn3)n2)C1 (stereo not drawn) [II-57, N-{1-(3-Methoxycyclobutyl)-3-(pyridine-2-yl)-1H-pyrazol-4-yl}-2-(1H-pyrazol-4-yl)thiazole-4-carboxamide] | –
0.0517 µM | 0.251 µM | O=C(Nc1cn([C@H]2C[C@H](OCC(F)(F)F)C2)nc1-c1ccccn1)c1csc(-c2cn[nH]c2)n1 [II-141, 2-(1H-pyrazol-4-yl)-N-(3-(pyridin-2-yl)-1-((trans)-3-(2,2,2-trifluoroethoxy)cyclobutyl)-1H-pyrazol-4-yl)thiazole-4-carboxamide] | –
0.083 µM | 0.0288 µM | O=C(Nc1cn([C@H]2C[C@@H](O)C2)nc1-c1ccccn1)c1ccc(-c2cn[nH]c2)o1 [Compound I-32, N-(1-((1,3-cis)-3-hydroxycyclobutyl)-3-(pyridin-2-yl)-1H-pyrazol-4-yl)-5-(1H-pyrazol-4-yl)furan-2-carboxamide] | –
0.0355 µM | 0.023 µM | O=C(Nc1cn([C@H]2C[C@@H](O)C2)nc1-c1cnccn1)c1csc(-c2cn[nH]c2)n1 [II-101, N-(1-((1,3-cis)-3-hydroxycyclobutyl)-3-(pyrazin-2-yl)-1H-pyrazol-4-yl)-2-(1H-pyrazol-4-yl)thiazole-4-carboxamide] | –
0.195 µM | 0.167 µM | COCCn1cc(NC(=O)c2ccc(-c3cnn(C(=O)[C@@H](NC(=O)OC(C)(C)C)C(C)C)c3)o2)c(-c2ccccn2)n1 [Compound I-20, tert-butyl (S)-(1-(4-(5-((1-(2-methoxyethyl)-3-(pyridin-2-yl)-1H-pyrazol-4-yl)carbamoyl)furan-2-yl)-1H-pyrazol-1-yl)-3-methyl-1-oxobutan-2-yl)carbamate] | –
0.0164 µM | 0.0308 µM | O=C(Nc1cn([C@H]2CC[C@H](O)CC2)nc1-c1ccccn1)c1csc(-c2cn[nH]c2)n1 [II-143, N-(1-((trans)-4-hydroxycyclohexyl)-3-(pyridin-2-yl)-1H-pyrazol-4-yl)-2-(1H-pyrazol-4-yl)thiazole-4-carboxamide] | –
